# Laboratory results taken from patent publication US7192781B2 (Pharmion Corporation, priority 2004, dated 2007).
# Tests used:
# [1] = Stability of 5-azacytidine in whole blood; conditions: for Mean [5-aza] / % of Time 0: whole blood;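 on all read-outs here: drug level determined in plasma separated from whole blood, extracted with acetonitrile plus internal standard, then quantified by LC/MS/MS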
# [2] = Stability of 5-azacytidine stored as an acetonitrile residue at minus 70° C.; conditions: for % of Time 0 / Mean [5-aza]: acetonitrile residue at minus 70° C.
# [3] = Stability of 5-azacytidine stored in acetonitrile/plasma mixtures at different temperatures; conditions: for % of Fresh Prep / Mean [5-aza]: acetonitrile/plasma mixture
# [4] = [5-aza] 15 ng/mL, Room Temp, 15 mins
# [5] = [5-aza] 15 ng/mL, Room Temp, 30 mins
# [6] = [5-aza] 15 ng/mL, Room Temp, 45 mins
# [7] = [5-aza] 200 ng/mL, Ice, 15 mins
# [8] = [5-aza] 200 ng/mL, Ice, 30 mins
# [9] = [5-aza] 200 ng/mL, Ice, 45 mins
# [10] = [5-aza] 200 ng/mL, Ice, 60 mins
# [11] = [5-aza] 200 ng/mL, Room Temp, 15 mins
# [12] = [5-aza] 200 ng/mL, Room Temp, 30 mins
# [13] = [5-aza] 200 ng/mL, Room Temp, 45 mins
# [14] = [5-aza] 200 ng/mL, Room Temp, 60 mins
# [15] = [5-aza] 30 ng/mL, Freeze-thaw (minus 70° C. for 4 days followed by RT for 5.5 hours)
# [16] = [5-aza] 400 ng/mL, Freeze-thaw (minus 70° C. for 4 days followed by RT for 5.5 hours)
smiles,measurement,setting,value
"Nc1ncn([C@@H]2O[C@H](CO)[C@@H](O)[C@H]2O)c(=O)n1 [5-azacytidine, 4-amino-1-β-D-ribofuranosyl-1,3,5-triazin-2(1H)-one]",degradation in whole blood,[1]; room temperature,rapidly degrades
same,degradation in whole blood,"[1]; stored on ice, compared with room temperature",slightly reduced rate
same,Mean [5-aza],"[1]; [5-aza] 15 ng/mL, Ice, 0 mins",16.1 (N = 5) ng/mL
same,% of Time 0,"[1]; [5-aza] 15 ng/mL, Ice, 15 mins",80.7%
same,Mean [5-aza],"[1]; [5-aza] 15 ng/mL, Ice, 15 mins",13.0 (N = 4) ng/mL
same,% of Time 0,"[1]; [5-aza] 15 ng/mL, Ice, 30 mins",77.6%
same,Mean [5-aza],"[1]; [5-aza] 15 ng/mL, Ice, 30 mins",12.5 (N = 3) ng/mL
same,% of Time 0,"[1]; [5-aza] 15 ng/mL, Ice, 45 mins",70.8%
same,Mean [5-aza],"[1]; [5-aza] 15 ng/mL, Ice, 45 mins",11.4 (N = 4) ng/mL
same,% of Time 0,"[1]; [5-aza] 15 ng/mL, Ice, 60 mins",71.4%
same,Mean [5-aza],"[1]; [5-aza] 15 ng/mL, Ice, 60 mins",11.5 (N = 5) ng/mL
same,Mean [5-aza],"[1]; [5-aza] 15 ng/mL, Room Temp, 0 mins",16.1 (N = 5) ng/mL
same,% of Time 0,[1]; [4],82.6%
same,Mean [5-aza],[1]; [4],13.3 (N = 5) ng/mL
same,% of Time 0,[1]; [5],71.4%
same,Mean [5-aza],[1]; [5],11.5 (N = 5) ng/mL
same,% of Time 0,[1]; [6],64.0%
same,Mean [5-aza],[1]; [6],10.3 (N = 2) ng/mL
same,Mean [5-aza],"[1]; [5-aza] 200 ng/mL, Ice, 0 mins",152.0 (N = 5) ng/mL
same,% of Time 0,[1]; [7],79.6%
same,Mean [5-aza],[1]; [7],121.0 (N = 5) ng/mL
same,% of Time 0,[1]; [8],73.0%
same,Mean [5-aza],[1]; [8],111.0 (N = 5) ng/mL
same,% of Time 0,[1]; [9],72.4%
same,Mean [5-aza],[1]; [9],110.0 (N = 5) ng/mL
same,% of Time 0,[1]; [10],57.2%
same,Mean [5-aza],[1]; [10],87.0 (N = 5) ng/mL
same,Mean [5-aza],"[1]; [5-aza] 200 ng/mL, Room Temp, 0 mins",152.0 (N = 5) ng/mL
same,% of Time 0,[1]; [11],73.4%
same,Mean [5-aza],[1]; [11],111.6 (N = 5) ng/mL
same,% of Time 0,[1]; [12],57.8%
same,Mean [5-aza],[1]; [12],87.9 (N = 5) ng/mL
same,% of Time 0,[1]; [13],37.3%
same,Mean [5-aza],[1]; [13],56.7 (N = 5) ng/mL
same,% of Time 0,[1]; [14],21.7%
same,Mean [5-aza],[1]; [14],33.0 (N = 5) ng/mL
same,time stable as acetonitrile residue,"[2]; about minus 70° C., stable = within ±20% of freshly prepared sample",at least 14 months
same,% of Time 0,"[2]; [5-aza] 30 ng/mL, 4 Weeks",90.0%
same,Mean [5-aza],"[2]; [5-aza] 30 ng/mL, 4 Weeks",27.1 (N = 6) ng/mL
same,% of Time 0,"[2]; [5-aza] 30 ng/mL, 6 Months",105.3%
same,Mean [5-aza],"[2]; [5-aza] 30 ng/mL, 6 Months",31.7 (N = 6) ng/mL
same,% of Time 0,"[2]; [5-aza] 30 ng/mL, 7 Days",93.7%
same,Mean [5-aza],"[2]; [5-aza] 30 ng/mL, 7 Days",28.2 (N = 6) ng/mL
same,% of Time 0,"[2]; [5-aza] 30 ng/mL, 14 Days",97.3%
same,Mean [5-aza],"[2]; [5-aza] 30 ng/mL, 14 Days",29.3 (N = 6) ng/mL
same,% of Time 0,"[2]; [5-aza] 30 ng/mL, 14 Months",111.0%
same,Mean [5-aza],"[2]; [5-aza] 30 ng/mL, 14 Months",33.4 (N = 5) ng/mL
same,% of Time 0,"[2]; [5-aza] 30 ng/mL, 15 Weeks",100.7%
same,Mean [5-aza],"[2]; [5-aza] 30 ng/mL, 15 Weeks",30.3 (N = 6) ng/mL
same,Mean [5-aza],"[2]; [5-aza] 30 ng/mL, Time 0",30.1 (N = 6) ng/mL
same,% of Time 0,"[2]; [5-aza] 400 ng/mL, 4 Weeks",95.6%
same,Mean [5-aza],"[2]; [5-aza] 400 ng/mL, 4 Weeks",365 (N = 5) ng/mL
same,% of Time 0,"[2]; [5-aza] 400 ng/mL, 6 Months",97.4%
same,Mean [5-aza],"[2]; [5-aza] 400 ng/mL, 6 Months",372 (N = 5) ng/mL
same,% of Time 0,"[2]; [5-aza] 400 ng/mL, 7 Days",98.7%
same,Mean [5-aza],"[2]; [5-aza] 400 ng/mL, 7 Days",377 (N = 6) ng/mL
same,% of Time 0,"[2]; [5-aza] 400 ng/mL, 14 Days",91.6%
same,Mean [5-aza],"[2]; [5-aza] 400 ng/mL, 14 Days",350 (N = 6) ng/mL
same,% of Time 0,"[2]; [5-aza] 400 ng/mL, 14 Months",115.9%
same,Mean [5-aza],"[2]; [5-aza] 400 ng/mL, 14 Months",443 (N = 5) ng/mL
same,% of Time 0,"[2]; [5-aza] 400 ng/mL, 15 Weeks",103.9%
same,Mean [5-aza],"[2]; [5-aza] 400 ng/mL, 15 Weeks",397 (N = 6) ng/mL
same,Mean [5-aza],"[2]; [5-aza] 400 ng/mL, Time 0",382 (N = 6) ng/mL
same,"measured 5-azacytidine concentration, deviation from initial concentration in the plasma sample","[2]; samples prepared according to the methods, LC/MS/MS",≤ 20%
same,time stable in acetonitrile layer over plasma layer,[3]; about minus 70° C.,at least 4 days
same,time stable in acetonitrile layer over plasma layer (acetonitrile/plasma solution),"[3]; about room temperature, stable = within ±20% of freshly prepared sample",at least 3 hours
same,% of Fresh Prep,"[3]; [5-aza] 30 ng/mL, 3 hours RT",98.7%
same,Mean [5-aza],"[3]; [5-aza] 30 ng/mL, 3 hours RT",29.8 (N = 6) ng/mL
same,% of Fresh Prep,[3]; [15],103.3%
same,Mean [5-aza],[3]; [15],31.2 (N = 6) ng/mL
same,Mean [5-aza],"[3]; [5-aza] 30 ng/mL, Fresh prep.",30.2 (N = 6) ng/mL
same,% of Fresh Prep,"[3]; [5-aza] 400 ng/mL, 3 hours RT",89.4%
same,Mean [5-aza],"[3]; [5-aza] 400 ng/mL, 3 hours RT",371 (N = 6) ng/mL
same,% of Fresh Prep,[3]; [16],88.4%
same,Mean [5-aza],[3]; [16],367 (N = 6) ng/mL
same,Mean [5-aza],"[3]; [5-aza] 400 ng/mL, Fresh prep.",415 (N = 6) ng/mL
same,time stable in acetonitrile/plasma solution,"[3]; minus 70° C. with one freeze-thaw cycle of 5.5 hours at room temperature, stable = within ±20% of freshly prepared sample",at least 4 days
